Measured values from publication PMC11855827, “High-Throughput Screening of Five Compound Libraries for Anthelmintic Activity and Toxicity Leads to the Discovery of Two Flavonoid Compounds” (International Journal of Molecular Sciences, 2025).

Tested on: C. elegans
Conditions: Table S2, C. elegans SS assay, 110 μM, averages of 4 data points

Compound	Percentage of motility inhibition 0 h [%]	Percentage of motility inhibition 24 h [%]
CC1=CC[C@@H](C(C)(C)O)CC1 [(-)-α-Terpineol]	15	17
C=CC(=C)CC/C=C(\C)CCC=C(C)C [(E)-β-Farnesene]	0	11
COc1cc(O)cc(O)c1C(=O)/C=C/c1ccccc1 [(E)‐Cardamonin]	13	8
COc1ccc(/C=C/C(=O)c2c(O)cc(OC)cc2OC)cc1 [(E)‐Flavokawain A]	33	11
CC(C)=CCC[C@@H](C)CCO [(R)-Citronellol]	1	14
COc1ccc2cc1Oc1ccc(cc1)C[C@H]1c3cc(c(OC)cc3CCN1C)Oc1c(O)c(OC)cc3c1[C@H](C2)N(C)CC3 [(R)‐Fangchinoline]	44	1
CC(C)=CCC[C@H](C)CC=O [(S)-(-)-Citronellal]	18	61
C=C(C)[C@@H]1CC=C(CO)CC1 [(S)-(−)-Perillyl alcohol]	36	35
Cn1nnc(-c2ccc(-c3ccc(N4C[C@@H](CO)OC4=O)cc3F)cn2)n1 [(S)‐Tedizolid]	26	5
O=C(O[C@H]1Cc2c(O)cc(O)cc2O[C@@H]1c1ccc(O)c(O)c1)c1cc(O)c(O)c(O)c1 [(‐)‐Catechin gallate]	3	0
COc1cc2c(cc1OC)[C@@H]1Cc3ccc(OC)c(OC)c3C[N@@+]1([O-])CC2 [(‐)‐Corynoxidine]	19	10
Oc1ccc([C@H]2Oc3cc(O)cc(O)c3C[C@H]2O)cc1 [(‐)‐Epiafzelechin]	13	42
O=C(O[C@@H]1Cc2c(O)cc(O)cc2O[C@@H]1c1cc(O)c(O)c(O)c1)c1cc(O)c(O)c(O)c1 [(‐)‐Epigalloca techin Gallate]	9	6
COc1cc2c(cc1O)[C@@H]1Cc3ccc(OC)c(OC)c3CN1CC2 [(‐)‐Isocorypalmine]	0	0
Cn1cc[n+](C[C@@]2(C)[C@H](C(=O)[O-])N3C(=O)C[C@H]3S2(=O)=O)n1 [AAI101]	27	0
NC(=O)c1ncn([C@@H]2O[C@H](CO)[C@@H](O)[C@H]2O)c1N.O=P(O)(O)O [AICAR (phosphate)]	20	6
CC(=O)O[C@@H]1CC[C@@]2(C)[C@@H](CC[C@]3(C)[C@@H]2C(=O)C=C2[C@@H]4[C@@H](C)[C@H](C)CC[C@]4(C)CC[C@]23C)[C@@]1(C)C(=O)O [AKBA]	0	6
Nc1nc(NC2CC2)c2ncn([C@H]3C=C[C@@H](CO)C3)c2n1.Nc1nc(NC2CC2)c2ncn([C@H]3C=C[C@@H](CO)C3)c2n1.O=S(=O)(O)O [Abacavir (sulfate)]	29	2
CC(=O)OC[C@H]1O[C@@H](OC[C@H]2O[C@@H](OC(=O)[C@]34CCC(C)(C)C[C@H]3C3=CC[C@@H]5[C@@]6(C)CC[C@H](O[C@@H]7OC[C@H](O)[C@H](O)[C@H]7O[C@@H]7O[C@H](CO)[C@@H](O)[C@H](O)[C@H]7O)C(C)(C)[C@@H]6CC[C@@]5(C)[C@]3(C)CC4)[C@H](O)[C@@H](O)[C@@H]2O)[C@H](O)[C@@H](O)[C@@H]1O[C@@H]1O[C@@H](C)[C@H](O)[C@@H](O)[C@H]1O [Acanthopanaxoside B]	0	0
CC(=O)NO [Acetohydroxamic acid]	13	4
CC(=O)O[C@H]1Cc2cc3c(cc2[C@H]2N(C)Cc4c(ccc5c4OCO5)[C@@]12C)OCO3 [Acetylcorynoline]	34	11

Compound	Percentage of motility inhibition 0 h [%]	Percentage of motility inhibition 24 h [%]
CC(=O)O[C@H](C[C@@H](C)[C@H]1C(=O)[C@H](O)[C@@]2(C)[C@@H]3CC[C@H]4C(C)(C)[C@@H](O[C@@H]5OC[C@H](O)[C@H](O)[C@H]5O)CC[C@@]45C[C@@]35CC[C@]12C)[C@@H]1OC1(C)C [Acetylshengmanol Arabinoside]	30	30
CC(=O)O[C@H](CC(=O)O)C[N+](C)(C)C.[Cl-] [Acetyl‐L‐carni tine (hydrochloride)]	12	0
COCCNC(=O)Nc1ccc2nc(-c3cccs3)c(-c3cccs3)nc2c1 [Ac‐CoA Synthase Inhibitor1]	16	8
Nc1ncnc2nc[nH]c12.Nc1ncnc2nc[nH]c12.O=S(=O)(O)O [Adenine (hemisulfate)]	3	5
Cl.Nc1ncnc2nc[nH]c12 [Adenine (hydrochloride)]	0	0
Nc1ncnc2c1ncn2[C@@H]1O[C@H](COP(=O)(O)O)[C@@H](O)[C@H]1O.O [Adenosine 5'-monophosphate (monohydrate)]	20	2
Nc1ncnc2c1ncn2[C@@H]1O[C@H](COP(=O)(O)O)[C@@H](O)[C@H]1O [Adenosine monophosphate]	8	6
C/C1=C2/[N-][C@H]([C@H](CC(N)=O)[C@@]2(C)CCC(=O)NC[C@@H](C)OP(=O)([O-])O[C@H]2[C@@H](O)[C@@H](n3cnc4cc(C)c(C)cc43)O[C@@H]2CO)[C@]2(C)N=C(/C(C)=C3N=C(/C=C4N=C1[C@@H](CCC(N)=O)C\4(C)C)[C@@H](CCC(N)=O)[C@]\3(C)CC(N)=O)[C@@H](CCC(N)=O)[C@]2(C)CC(N)=O.[CH2-][C@H]1O[C@@H](n2cnc3c(N)ncnc32)[C@H](O)[C@@H]1O.[Co] [Adenosylcobalamin]	20	22
COC(=O)C1=CO[C@@H](C)[C@H]2CN3CCc4c([nH]c5ccccc45)[C@@H]3C[C@H]12 [Ajmalicine]	0	1
C[C@]1(O)C[C@@H](O)[C@@H]2C=CO[C@@H](O[C@@H]3O[C@H](CO)[C@@H](O)[C@H](O)[C@H]3O)[C@@H]21 [Ajugol]	0	2
C=C1C(=O)O[C@@H]2C[C@@]3(C)CCC[C@H](C)C3=C[C@H]12 [Alantolactone]	6	29
C[C@]12C[C@@H](O)[C@@H]3C[C@@]1(O[C@@H]1O[C@H](CO)[C@@H](O)[C@H](O)[C@H]1O)[C@@]3(COC(=O)c1ccccc1)C(=O)O2 [Albiflorin]	0	2
CC(=O)O[C@H]([C@@H](O)C[C@@H](C)C1=C2C[C@H](O)[C@H]3[C@@]4(C)CCC(=O)C(C)(C)[C@@H]4CC[C@]3(C)[C@@]2(C)CC1)C(C)(C)O [Alisol A 24-acetate]	3	23
CC(=O)O[C@@H](C[C@@H](C)C1=C2C[C@H](O)[C@H]3[C@@]4(C)CCC(=O)C(C)(C)[C@@H]4CC[C@]3(C)[C@@]2(C)CC1=O)[C@H]1OC1(C)C [Alisol C 23-acetate]	0	17
C[C@@H]1C[C@@H]([C@@H](O)C(C)(C)O)O[C@H]2C[C@@]3(C)C(=C12)C[C@H](O)[C@H]1[C@@]2(C)CCC(=O)C(C)(C)[C@@H]2CC[C@@]13C [Alisol F]	0	11
O=C1CCC[C@@H]2[C@H]3CCCN4CCC[C@@H](CN12)[C@H]34 [Allomatrine]	0	0
O=C1C=C2C=C[C@@H]3C[C@@]2(O1)[C@@H]1CCCCN31 [Allosecurinine]	23	29
C1=C2CCCN[C@H]2[C@@H]2C[C@H]1[C@H]1CCCCN1C2 [Aloperine]	20	0
Cl.NC12CC3CC(CC(C3)C1)C2 [Amantadine (hydrochloride)]	42	2
C=C[C@H]1[C@H](O[C@@H]2O[C@H](CO)[C@@H](O)[C@H](O)[C@H]2OC(=O)c2c(O)cc(O)cc2-c2cccc(O)c2)OC=C2C(=O)OCC[C@]21O [Amaroswerin]	0	0
